Active and inactive are the calls of the source. No cut-off for these calls is given here.
Experiments:
[1] = target: T1, Prostaglandin D2 receptor 2 (Homo sapiens, UniProt Q9Y5Y4); assay: Displacement of [3H]PGD2 from human prostaglandin D2 receptor in presence of human serum albumin
T1 sequence (Q9Y5Y4 whole entry): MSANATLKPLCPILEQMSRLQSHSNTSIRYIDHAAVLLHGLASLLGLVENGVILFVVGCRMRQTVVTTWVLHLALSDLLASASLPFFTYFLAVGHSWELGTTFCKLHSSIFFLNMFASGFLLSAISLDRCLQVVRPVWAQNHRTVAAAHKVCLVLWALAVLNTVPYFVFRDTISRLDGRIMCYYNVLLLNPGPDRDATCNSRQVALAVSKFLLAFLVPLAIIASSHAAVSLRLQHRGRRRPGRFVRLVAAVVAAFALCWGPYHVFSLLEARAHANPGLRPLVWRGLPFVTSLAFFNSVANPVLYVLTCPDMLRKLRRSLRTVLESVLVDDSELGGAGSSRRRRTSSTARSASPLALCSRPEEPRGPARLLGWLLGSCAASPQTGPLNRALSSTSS

Cytochrome P450 2D6 = Cytochrome P450 2D6 (Homo sapiens, UniProt P10635); assay: Inhibition of human CYP2D6; assay type: ADME
Chain of Cytochrome P450 2D6 (P10635 whole entry): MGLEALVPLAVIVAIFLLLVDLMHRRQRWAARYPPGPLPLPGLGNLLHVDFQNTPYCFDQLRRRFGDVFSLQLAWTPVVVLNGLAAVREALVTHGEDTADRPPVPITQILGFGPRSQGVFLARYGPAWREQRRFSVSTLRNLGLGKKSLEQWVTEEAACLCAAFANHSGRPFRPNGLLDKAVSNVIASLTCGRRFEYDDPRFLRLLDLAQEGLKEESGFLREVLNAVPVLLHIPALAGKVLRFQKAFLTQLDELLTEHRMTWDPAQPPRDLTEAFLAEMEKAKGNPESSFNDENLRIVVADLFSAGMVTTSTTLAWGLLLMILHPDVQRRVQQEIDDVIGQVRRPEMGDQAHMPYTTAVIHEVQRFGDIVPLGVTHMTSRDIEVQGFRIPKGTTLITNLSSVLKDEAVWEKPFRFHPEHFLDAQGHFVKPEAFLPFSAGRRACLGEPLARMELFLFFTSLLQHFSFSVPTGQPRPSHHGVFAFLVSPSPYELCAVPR

Cytochrome P450 3A4 [2] = target: T2, Cytochrome P450 3A4 (Homo sapiens, UniProt P08684); assay: Inhibition of human CYP3A4; assay type: ADME
T2 sequence (P08684 whole entry): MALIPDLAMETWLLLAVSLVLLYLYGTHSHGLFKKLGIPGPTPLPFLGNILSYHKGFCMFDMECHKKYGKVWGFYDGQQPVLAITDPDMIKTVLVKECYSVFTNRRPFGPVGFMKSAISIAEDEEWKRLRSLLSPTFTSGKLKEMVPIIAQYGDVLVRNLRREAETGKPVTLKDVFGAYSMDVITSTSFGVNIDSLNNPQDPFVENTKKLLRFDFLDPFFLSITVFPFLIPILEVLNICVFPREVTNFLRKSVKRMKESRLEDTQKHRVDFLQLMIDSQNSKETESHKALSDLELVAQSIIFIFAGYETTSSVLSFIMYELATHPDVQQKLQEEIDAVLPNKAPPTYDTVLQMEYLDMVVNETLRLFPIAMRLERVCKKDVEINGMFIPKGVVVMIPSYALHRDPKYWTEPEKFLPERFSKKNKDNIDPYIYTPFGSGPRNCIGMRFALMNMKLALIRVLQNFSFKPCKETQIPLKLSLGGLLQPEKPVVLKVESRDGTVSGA

[3] = target: T1, Prostaglandin D2 receptor 2; assay: Displacement of [3H]PGD2 from human prostaglandin D2 receptor
Cytochrome P450 3A4 [4] = target: T2, Cytochrome P450 3A4; assay: Induction of CYP3A4 activity in cryopreserved human hepatocytes at 10 uM using midazolam as substrate after 2 days relative to rifampicin; settings: 48 h
Cytochrome P450 2C9 = Cytochrome P450 2C9 (Homo sapiens, UniProt P11712); assay: Inhibition of human CYP2C9; assay type: ADME
Chain of Cytochrome P450 2C9 (P11712 whole entry): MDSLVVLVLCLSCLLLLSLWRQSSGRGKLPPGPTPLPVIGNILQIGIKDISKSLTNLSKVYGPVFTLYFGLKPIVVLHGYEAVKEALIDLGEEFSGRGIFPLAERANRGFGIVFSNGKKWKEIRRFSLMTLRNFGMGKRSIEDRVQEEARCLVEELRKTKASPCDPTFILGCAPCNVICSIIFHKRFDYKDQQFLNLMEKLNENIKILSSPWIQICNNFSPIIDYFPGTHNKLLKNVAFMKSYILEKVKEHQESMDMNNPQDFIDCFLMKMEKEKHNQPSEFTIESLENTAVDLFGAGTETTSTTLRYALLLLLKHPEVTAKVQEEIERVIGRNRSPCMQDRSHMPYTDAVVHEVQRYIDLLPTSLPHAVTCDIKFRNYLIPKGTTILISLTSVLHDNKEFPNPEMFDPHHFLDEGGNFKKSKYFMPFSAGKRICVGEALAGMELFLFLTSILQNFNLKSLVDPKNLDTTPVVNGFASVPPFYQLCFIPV

Prostacyclin receptor = Prostacyclin receptor (Homo sapiens, UniProt P43119); assay: Displacement of [3H]iloprost from human prostacyclin receptor expressed in human 293 cell membrane; assay type: cell membranes
Chain of Prostacyclin receptor (P43119 whole entry): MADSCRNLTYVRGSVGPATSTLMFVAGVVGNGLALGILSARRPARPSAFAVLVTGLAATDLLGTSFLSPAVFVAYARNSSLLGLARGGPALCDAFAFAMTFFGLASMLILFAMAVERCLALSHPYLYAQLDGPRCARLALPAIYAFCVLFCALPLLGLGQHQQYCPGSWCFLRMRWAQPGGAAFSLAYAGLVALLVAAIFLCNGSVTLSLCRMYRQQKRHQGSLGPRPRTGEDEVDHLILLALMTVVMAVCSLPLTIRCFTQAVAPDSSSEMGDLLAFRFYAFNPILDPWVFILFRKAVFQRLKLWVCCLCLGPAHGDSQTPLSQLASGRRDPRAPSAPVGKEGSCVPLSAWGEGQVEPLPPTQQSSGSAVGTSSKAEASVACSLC

[5] = target: T3, Prostaglandin D2 receptor (Homo sapiens, UniProt Q13258); assay: Displacement of [3H]PGD2 from […] in human platelet membrane; assay type: cell membranes
T3 sequence (Q13258 whole entry): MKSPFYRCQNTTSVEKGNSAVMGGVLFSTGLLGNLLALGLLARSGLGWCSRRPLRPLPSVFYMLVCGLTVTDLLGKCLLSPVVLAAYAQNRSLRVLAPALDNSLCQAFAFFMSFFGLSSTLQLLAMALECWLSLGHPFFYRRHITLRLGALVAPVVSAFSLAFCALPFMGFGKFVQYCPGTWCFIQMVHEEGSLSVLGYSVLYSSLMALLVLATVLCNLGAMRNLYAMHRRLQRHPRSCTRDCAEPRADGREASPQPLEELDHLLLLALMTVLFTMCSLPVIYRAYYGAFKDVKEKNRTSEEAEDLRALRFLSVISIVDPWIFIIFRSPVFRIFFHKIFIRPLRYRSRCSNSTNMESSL

Thromboxane A2 receptor = target: T4, Thromboxane A2 receptor (Homo sapiens, UniProt P21731); assay: Displacement of [3H]SQ-29548 from thromboxane receptor in human platelet membrane; assay type: cell membranes
T4 sequence (P21731 whole entry): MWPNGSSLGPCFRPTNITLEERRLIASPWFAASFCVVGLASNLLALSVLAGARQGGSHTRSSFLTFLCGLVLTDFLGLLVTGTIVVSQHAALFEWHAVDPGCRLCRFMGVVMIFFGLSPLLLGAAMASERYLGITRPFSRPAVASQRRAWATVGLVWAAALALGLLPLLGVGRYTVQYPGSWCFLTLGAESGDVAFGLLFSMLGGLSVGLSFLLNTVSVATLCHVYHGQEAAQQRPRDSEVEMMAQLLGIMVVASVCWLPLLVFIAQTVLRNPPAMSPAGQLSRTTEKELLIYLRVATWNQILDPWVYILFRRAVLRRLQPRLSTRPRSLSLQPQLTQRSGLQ

Blood = assay: Inhibition of eosinophil […] in human whole blood assessed as change in morphology after 4 mins using flow cytometry by leukocyte shape change assay; assay type: functional, tissue-based
Mus musculus [6] = assay: Reduction of ovalbumin-induced increase in sneezes in BALB/c mouse at 10 mg/kg, po once daily for 3 days administered 20 days after ip challenge with ovalbumin followed by intranasal ovalbumin challenge 1 hr post drug dose measured after 8 mins; assay type: functional, organism-based; set-up: dose 10 mg/kg
[7] = Cmin in BALB/c mouse at 10 mg/kg, po administered once daily for 3 days measured after 8 hrs; assay type: ADME, organism-based; set-up: dose 10 mg/kg, route oral; settings: in vivo, read-out: Cmin
[8] = Cmax in BALB/c mouse at 10 mg/kg, po administered once daily for 3 days measured after 1 hr; assay type: ADME, organism-based; set-up: dose 10 mg/kg, route oral; settings: in vivo
Mus musculus [9] = assay: Reduction of ovalbumin-induced increase in nasal rubs in BALB/c mouse at 10 mg/kg, po once daily for 3 days administered 20 days after ip challenge with ovalbumin followed by intranasal ovalbumin challenge 1 hr post drug dose measured after 8 mins; assay type: functional, organism-based; set-up: dose 10 mg/kg

IC50 [1] | IC50 (Cytochrome P450 2D6) | IC50 (Cytochrome P450 3A4 [2]) | IC50 [3] | Activity (Cytochrome P450 3A4 [4]) | IC50 (Cytochrome P450 2C9) | IC50 (Prostacyclin receptor) | IC50 [5] | IC50 (Thromboxane A2 receptor) | IC50 (Blood) | concentration at 8 h [7] | Cmax [8] | SMILES | Activity (Mus musculus [6]) | Activity (Mus musculus [9])
51 µM | > 30 µM | > 30 µM | 24.9 µM | 0.9% | > 30 µM | > 100 µM | 41.7 µM | > 100 µM | 41.6 µM |  |  | CN([C@@H]1CCc2c(CC(=O)O)c3ncccc3n2C1)S(=O)(=O)c1ccc(F)cc1 |  | 
0.94 µM | > 30 µM | > 30 µM | 0.86 µM | 0.4% | > 30 µM | > 100 µM | > 100 µM | > 100 µM | 0.452 µM |  |  | CN([C@@H]1CCc2c(c3ccncc3n2CC(=O)O)C1)S(=O)(=O)c1ccc(F)cc1 |  | 
1.34 µM | > 30 µM | > 30 µM | 0.457 µM | 2.8% | > 30 µM | > 100 µM | 9 µM | > 100 µM | 3.1 µM |  |  | CN([C@@H]1CCc2c(c3cccnc3n2CC(=O)O)C1)S(=O)(=O)c1ccc(F)cc1 |  | 
0.127 µM | > 30 µM | > 30 µM | 0.096 µM | 0.9% | 15 µM | > 100 µM | 37.8 µM | > 100 µM | 0.14 µM |  |  | CN([C@@H]1CCc2c(c3nccnc3n2CC(=O)O)C1)S(=O)(=O)c1ccc(F)cc1 |  | 
0.046 µM | > 30 µM | > 30 µM | 0.018 µM | 0.9% | 17 µM | > 100 µM | 4.4 µM | > 100 µM | 0.006 µM |  |  | CN([C@@H]1CCc2c(CC(=O)O)c3ccccn3c2C1)S(=O)(=O)c1ccc(F)cc1 |  | 
0.011 µM | > 30 µM | > 30 µM | 0.006 µM | 2.8% | > 30 µM | > 100 µM | > 100 µM | > 100 µM | 0.001 µM | 0.12 µM | 0.77 µM | CN([C@@H]1CCc2c(c3ncccc3n2CC(=O)O)C1)S(=O)(=O)c1ccc(F)cc1 | Active | Active

More lines, now with the values behind:

SMILES | IC50 [1] | IC50 (Cytochrome P450 2D6) | IC50 (Cytochrome P450 3A4 [2]) | IC50 [3] | Activity (Cytochrome P450 3A4 [4]) | IC50 (Cytochrome P450 2C9) | IC50 (Prostacyclin receptor) | IC50 [5] | IC50 (Thromboxane A2 receptor) | IC50 (Blood) | concentration at 8 h [7] | Cmax [8] | Activity (Mus musculus [6]) | Activity (Mus musculus [9])
CN([C@@H]1CCc2c(c3ccccn3c2CC(=O)O)C1)S(=O)(=O)c1ccc(F)cc1 | 0.061 µM | > 30 µM | 11 µM | 0.094 µM |  | 10 µM | > 100 µM | 31 µM |  | 0.016 µM |  |  |  | 
Cc1c(Cc2ccc3ccccc3n2)c2cc(F)ccc2n1CC(=O)O [TIMAPIPRANT] |  | > 30 µM |  |  | 58.8% | > 30 µM | 57.9 µM | 7.3 µM | > 100 µM | 0.261 µM |  |  |  | 
CN(C)c1nc(Cc2ccc(NC(=O)c3ccc(C(F)(F)F)cc3)cc2)nc(N(C)C)c1CC(=O)O [BI-671800] | 0.744 µM | > 30 µM |  | 0.042 µM | 0.4% | > 30 µM | > 100 µM | 25.6 µM | 62.6 µM | 0.744 µM |  |  |  | 
CN([C@@H]1CCC2=C(C1)C1C=CC=CC1N2CC(=O)O)S(=O)(=O)c1ccc(F)cc1 (stereo partly specified) | 0.004 µM | > 30 µM | > 30 µM | 0.001 µM | 30.8% | 18 µM | > 100 µM | 2.2 µM | > 100 µM | 0.001 µM |  |  |  | 
CN([C@@H]1CCc2c(CC(=O)O)c3ccccc3n2C1)S(=O)(=O)c1ccc(F)cc1 [MK-7246] | 0.02 µM | > 30 µM | 7 µM | 0.006 µM | 0.7% | 5 µM | > 100 µM | 1 µM | > 100 µM | 0.007 µM |  |  |  | 
O=C(O)CCn1c2c(c3ccccc31)C[C@H](NS(=O)(=O)c1ccc(F)cc1)CC2 [RAMATROBAN] | 0.754 µM | > 30 µM |  | 0.311 µM |  | 15 µM | > 100 µM | 33.4 µM | 0.014 µM | 1.21 µM |  |  |  | 
